Laboratory results: patent publication US20210369652A1, “Nonhormonal Unisex Contraceptives” (The Regents of the University of California, priority 2019, published 2021)
Entries after “also recorded” stand apart in the source; their conditions may differ. Blank lines part the entries; values can stand above or below the compound they belong to.

Legend:
[1] = molecular target: T1, ANT (Mus musculus, UniProt P48962); experiment: Whole-IMM patch-clamp recording of H+ current (IH) in mitoplasts; assay type: biochemical, mice; conditions: for ANT-mediated H+ current (IH), regulators: skeletal muscle mitoplast, 2 μM AA, then 1 mM bath ADP, step from 0 to -160 mV
T1 construct: functional analysis of mitochondrial ion channels and transporters in their native membrane environment; from tissue; host or cells: heart mitoplasts (WT and ANT1-/- mice); skeletal muscle mitoplasts
T1 sequence (P48962 2-298): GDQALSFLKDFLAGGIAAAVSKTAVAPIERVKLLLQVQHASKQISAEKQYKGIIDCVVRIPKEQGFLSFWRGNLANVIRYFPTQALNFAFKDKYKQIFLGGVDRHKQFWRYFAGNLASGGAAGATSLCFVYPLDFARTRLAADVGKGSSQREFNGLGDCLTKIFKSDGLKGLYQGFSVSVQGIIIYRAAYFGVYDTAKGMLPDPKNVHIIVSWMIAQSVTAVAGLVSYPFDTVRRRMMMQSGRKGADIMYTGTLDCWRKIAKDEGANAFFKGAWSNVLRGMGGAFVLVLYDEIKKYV
Source text: FIG. 3A-B is a pair of schematic diagrams depicting a mitochondrial patch-clamp. (A) Preparation of mitoplasts (vesicles of the whole IMM): (1) Isolation of mitochondria from cell lysate by centrifugation; (2) OMM removal using a low-pressure French press; (3) isolated mitoplasts in a KCl solution. Remnants of the OMM (arrow) are attached to the IMM. (B) Patch-clamp recording from mitoplasts. After formation of the gigaohm seal (mitoplast-attached configuration), the membrane patch under the pipette can be destroyed by high-amplitude voltage pulses to form a whole-mitoplast configuration for recording currents (I) across the whole IMM. Alternatively, the patch pipette can be withdrawn from the mitoplast to form an inside-out mode for recording single-channel activity.
FIG. 4 is a series of graphs (upper panels) and a schematic diagram (lower panel) showing regulators of ANT-mediated H^+ current (IH). […] Control current is shown in black. Middle panel: IH time course of the left panel. Skeletal muscle mitoplast. IH amplitudes were measured upon stepping from 0 to −160 mV. Right panel: ADP inhibition of IH in points 2 and 3. Remaining IH measured at −160 mV is shown as a percentage of control, n=8. Explanation of transient IH inhibition by cytosolic adenine nucleotides. ANT in c-state, with fatty acid (FA) anion in the translocation pathway, mediates IH (I). Cytosolic ADP^3− binds in c-state and expels FA anion/blocks translocation pathway, leading to IH inhibition (2). Upon ANT conformation change, ADP dissociates into matrix (pipette) solution (2 and 3). FA anion re-associates with ANT in m-state, restoring IH (4 and 5). Cytosolic ADP cannot inhibit IH while AAC is in m-state (5). Preliminary data from (Bertholet, A. M. Chouchani., E. T.; Kazak, L.; Angelin, A.; Fedorenko, A.; Long, J. Z.; Vidoni, S.; Garrity, R.; Cho, J.; Terada, N.; Wallace, D.C.; Spiegelman, B. M.; and Kirichok, Y. Proton Transport is an Integral Function of the Mitochondrial ADP/ATP Carrier Nature July; 571(7766):515-520 (2019)).
Right panel: IH current densities at −160 mV for WT and ANT1^−/− mitoplasts. b, Representative currents induced by 50 μM DNP in WT and ANT1^−/− mitoplasts of heart. Right panel: IH current densities induced by 50 and 200 μM DNP at −160 mV in WT and ANT1^−/− mitoplasts.
We employed direct patch-clamp recording from vesicles of the whole intact inner mitochondrial membrane (IMM; so-called mitoplasts, FIG. 3), which allow high-resolution functional analysis of mitochondrial ion channels and transporters in their native membrane environment^10,36,37. […]
We recorded DNP-induced IH in heart of ANT1-deficient mice (ANT1 is the dominant isoform of ANT in this tissue).

[2] = tested on: human sperm mitochondria; experiment: Human sperm mitochondrial membrane potential (MMP) assessment with MitoRed; assay type: cell-based; conditions: 15 minutes incubation, 1 μM NEN or 0.75 μM BAM15, 45 nM MitoRed fluorescence
Procedure: Samples from each condition (at least 100 of sperm midpieces per condition) were then assessed for fluorescence intensity measured with 45 nM MitoRed, which is a cell membrane permeable rhodamine-based dye. MitoRed localizes to mitochondria, and emits red fluorescence. The interaction of Mito Red with mitochondria depends on the membrane potential of the mitochondria. Uncoupled mitochondria emit less fluorescence. Data are standard boxplots, as in (A). C) Effect of sMU on human capacitated sperm hyperactivated motility. Cells were capacitated as described (11) for 4 hours. 4 μM Progesterone was added 2 minutes before imaging to trigger hyperactivation (HA). Cells were assessed as either Hyperactivated or Not Hyperactivated. N>45 cells. Error bars represent 95% CI calculated through the Wilson/Brown method.

[3] = tested on: human capacitated sperm; experiment: Hyperactivated motility of capacitated human sperm triggered by progesterone; assay type: cell-based; conditions: capacitated 4 hours; 4 μM progesterone; concentrations as low as 1 μM
Procedure: A) Human sperm were purified by swim-up method and their basal beat frequency (BF, in Hz) was measured as described in (Mannowetz, N., Naidoo, N. M., Choo, S. A., Smith, J. F. & Lishko, P. V. Slol is the principal potassium channel of human spermatozoa. eLife 2, e01009, doi:10.7554/eLife.01009 (2013)) in control HS solution ((1); in the presence of vehicle control ((2); […]. X's represent the mean of the sample, and dots represent individual data points. B) Human sperm mitochondrial membrane potential (MMP) assessment. Human sperm were incubated for 15 minutes in the presence of 0.1% DMSO (vehicle control), in the presence of 1 μM NEN or 0.75 μM […]. Samples from each condition (at least 100 of sperm midpieces per condition) were then assessed for fluorescence intensity measured with 45 nM MitoRed, which is a cell membrane permeable rhodamine-based dye. MitoRed localizes to mitochondria, and emits red fluorescence. The interaction of Mito Red with mitochondria depends on the membrane potential of the mitochondria. Uncoupled mitochondria emit less fluorescence. Data are standard boxplots, as in (A). C) Effect of sMU on human capacitated sperm hyperactivated motility. Cells were capacitated as described (11) for 4 hours. […] Cells were assessed as either Hyperactivated or Not Hyperactivated. […] Error bars represent 95% CI calculated through the Wilson/Brown method.

[4] = tested on: human sperm; experiment: Human sperm basal beat frequency; assay type: cell-based; conditions: for sperm beat frequency / motility, result in words: human sperm, 1 μM NEN
Procedure: A) Human sperm were purified by swim-up method and their basal beat frequency (BF, in Hz) was measured as described in (Mannowetz, N., Naidoo, N. M., Choo, S. A., Smith, J. F. & Lishko, P. V. Slol is the principal potassium channel of human spermatozoa. eLife 2, e01009, doi:10.7554/eLife.01009 (2013)) in control HS solution ((1); in the presence of vehicle control ((2); […]. X's represent the mean of the sample, and dots represent individual data points. B) Human sperm mitochondrial membrane potential (MMP) assessment. Human sperm were incubated for 15 minutes in the presence of 0.1% DMSO (vehicle control), in the presence of 1 μM NEN or 0.75 μM […]. Samples from each condition (at least 100 of sperm midpieces per condition) were then assessed for fluorescence intensity measured with 45 nM MitoRed, which is a cell membrane permeable rhodamine-based dye. MitoRed localizes to mitochondria, and emits red fluorescence. The interaction of Mito Red with mitochondria depends on the membrane potential of the mitochondria. Uncoupled mitochondria emit less fluorescence. Data are standard boxplots, as in (A). C) Effect of sMU on human capacitated sperm hyperactivated motility. Cells were capacitated as described (11) for 4 hours. 4 μM Progesterone was added 2 minutes before imaging to trigger hyperactivation (HA). Cells were assessed as either Hyperactivated or Not Hyperactivated. N>45 cells. Error bars represent 95% CI calculated through the Wilson/Brown method.

Compound: C=C1[C@@H]2CC[C@H]3[C@]4(C)C[C@H](O[C@@H]5O[C@H](CO)[C@@H](OS(=O)(=O)O)[C@H](OS(=O)(=O)O)[C@H]5OC(=O)CC(C)C)CC(C(=O)O)(C(=O)O)[C@H]4CC[C@]3(C2)[C@H]1O [CATR, carboxyatractyloside]
inhibition of IH mediated by ANT ([1]; whole-IMM patch-clamp, classical ANT inhibitor): blocked

Compound: O=[N+]([O-])c1ccc(O)c([N+](=O)[O-])c1 [DNP, 2,4-dinitrophenol]
sperm mitochondrial uncoupling (sMU) as assessed by mitochondrial depolarization [2]: uncouple sperm mitochondria
proton leak (IH) via ANT induced by uncoupler ([1]; whole-IMM patch-clamp, 50 and 200 μM DNP, heart mitoplasts WT and ANT1-/-, -160 mV): strongly and specifically activates proton leak via ANT; also recorded: primarily depends on ANT

ANT-mediated H+ current (IH), regulators [1]: transient inhibition
Compound: Nc1ncnc2c1ncn2[C@@H]1O[C@H](COP(=O)(O)OP(=O)(O)O)[C@@H](O)[C@H]1O [ADP]

ANT-mediated H+ current (IH), regulators [1]: activated
Compound: CCCCC/C=C\C/C=C\C/C=C\C/C=C\CCCC(=O)O [arachidonic acid]

Compound: O=C(Nc1ccc([N+](=O)[O-])cc1Cl)c1cc(Cl)ccc1O [niclosamide]
sperm mitochondrial uncoupling (sMU) as assessed by mitochondrial depolarization [2]: uncouple sperm mitochondria
sperm mitochondrial uncoupling (sMU) as assessed by mitochondrial depolarization ([2]; listed as Niclosamide): uncouples mitochondria
hyperactivation (hyperactivated motility) [3]: inhibited hyperactivation
sperm beat frequency ([4]; human sperm purified by swim-up, decreased from 14 Hz, concentrations as low as 1 μM): 6 Hz
sperm beat frequency / motility, result in words [4]: significantly decreases sperm motility

Compound: NCCO.O=C(Nc1ccc([N+](=O)[O-])cc1Cl)c1cc(Cl)ccc1O [NEN, niclosamide ethanolamine]
sperm mitochondrial uncoupling (sMU) as assessed by mitochondrial depolarization [2]: uncouples human sperm mitochondria; also recorded: strong sMU
hyperactivation (hyperactivated motility) [3]: significantly decreases
sperm beat frequency / motility, result in words [4]: significantly decreases
